Results taken from patent publication US7407961B2, “Pyrazine derivatives and pharmaceutical use thereof” (Astellas Pharma Inc., priority 2003, dated 2008).

How the values were obtained:
human A1 receptor = molecular target: T1, human A1 receptor (Homo sapiens, UniProt P30542); experiment: Adenosine antagonistic activity, radioligand binding with [3H]DPCPX; settings: [3H]DPCPX 4.5 nM
T1 sequence (P30542 1-326): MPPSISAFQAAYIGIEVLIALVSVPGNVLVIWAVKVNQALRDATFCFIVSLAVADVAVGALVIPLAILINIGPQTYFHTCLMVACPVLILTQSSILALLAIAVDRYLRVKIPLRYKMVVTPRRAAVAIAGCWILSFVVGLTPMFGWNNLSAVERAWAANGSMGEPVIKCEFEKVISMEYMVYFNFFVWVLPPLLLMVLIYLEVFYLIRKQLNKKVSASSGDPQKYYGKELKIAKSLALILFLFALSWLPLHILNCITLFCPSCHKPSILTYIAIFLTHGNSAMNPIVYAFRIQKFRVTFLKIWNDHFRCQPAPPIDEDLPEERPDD
Procedure: (§1) Test 1: Adenosine Antagonistic Activity
(§2) The adenosine antagonistic activity [Ki(nM)] of the test compound was examined by radioligand binding techniques using 8-cyclopentyl-1,3-dipropylxanthine, [dipropyl-2,3-^3H(N)] ([^3H]DPCPX, 4.5 nM) for human A1 receptor and [^3H]CGS 21680 (20 nM) for human A2a receptor.

human A2a receptor = human A2a receptor (Homo sapiens, UniProt P29274); experiment: Adenosine antagonistic activity, radioligand binding with [3H]CGS 21680; settings: [3H]CGS 21680 20 nM
Sequence of human A2a receptor (P29274 whole entry): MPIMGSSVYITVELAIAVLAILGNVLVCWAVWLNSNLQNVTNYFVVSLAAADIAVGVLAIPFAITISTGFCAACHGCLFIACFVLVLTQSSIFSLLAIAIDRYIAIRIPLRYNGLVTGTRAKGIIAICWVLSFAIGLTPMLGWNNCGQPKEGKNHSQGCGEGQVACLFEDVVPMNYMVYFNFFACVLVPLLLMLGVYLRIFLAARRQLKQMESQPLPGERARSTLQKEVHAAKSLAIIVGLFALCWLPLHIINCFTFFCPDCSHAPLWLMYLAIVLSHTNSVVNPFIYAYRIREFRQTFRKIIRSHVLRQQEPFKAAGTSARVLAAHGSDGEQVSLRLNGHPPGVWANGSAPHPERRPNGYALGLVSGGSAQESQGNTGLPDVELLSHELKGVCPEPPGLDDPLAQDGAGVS
Procedure: as §1, §2

ddY mice = experiment: Anticatalepsy activity in mouse (haloperidol-induced catalepsy, bar test); format: in vivo; settings: 3.2 mg/kg orally, ddY mice n=7; haloperidol 0.32 mg/kg i.p. 30 min later; measured 30 min after injection
Procedure: Test 2: Anticatalepsy Activity in Mouse [I] Test Method
The test compound (3.2 mg/kg) was administered orally with ddY mice (n=7). Then, haloperidol (0.32 mg/kg) was injected intraperitoneally 30 min. after the administration of the compound. Thirty min after the injection, the cataleptic responses of mice were measured. The forelimbs of each mouse were placed on a 3 cm high, 3 mm wide horizontal bar, and the duration of cataleptic posture was measured for up to 30 sec.

| SMILES | Ki (human A1 receptor) [nM] | Ki (human A2a receptor) [nM] | Manifestation rate of Catalepsy (number of mouse) (ddY mice) | melting point [°C] |
| --- | --- | --- | --- | --- |
| CC(C)n1cc(-c2ncc(N)nc2-c2cccs2)ccc1=O [Example 115, 5-[5-Amino-3-(2-thienyl)-2-pyrazinyl]-1-isopropyl-2(1H)-pyridone] | 4.89 | 0.84 | 0/7 |  |
| CC(C)n1cc(-c2nc(C(=O)NCCO)c(N)nc2-c2ccccc2)ccc1=O [Example 49, 3-Amino-N-(2-hydroxyethyl)-6-(1-isopropyl-6-oxo-1,6-dihydro-3-pyridyl)-5-phenyl-2-pyrazinecarboxamide] | 6.07 | 1.69 | 1/7 |  |
| CC(C)n1cc(-c2nc(CO)c(N)nc2-c2ccccc2)ccc1=O [Example 47, 5-[5-amino-6-(hydroxymethyl)-3-phenyl-2-pyrazinyl]-1-isopropyl-2(1H)-pyridone] | 22.3 | 7.52 | 1/7 |  |
| CC(C)n1cc(-c2nc(-c3ccco3)c(N)nc2-c2ccccc2)ccc1=O [Example 144, 5-[5-Amino-6-(2-furyl)-3-phenyl-2-pyrazinyl]-1-isopropyl-2(1H)-pyridone] | 1.78 | 0.54 | 0/7 |  |
| CC(C)n1cc(-c2ncc(N)nc2-c2cc(F)cc(F)c2)ccc1=O [Example 129, 5-[5-Amino-3-(3,5-difluorophenyl)-2-pyrazinyl]-1-isopropyl-2(1H)-pyridone] | 10.7 | 3.9 | 0/7 |  |
| CCn1cc(-c2nc(C(N)=O)c(N)nc2-c2ccccc2)ccc1=O [Example 4, 3-Amino-6-(1-ethyl-6-oxo-1,6-dihydro-3-pyridyl)-5-phenyl-2-pyrazinecarboxamide] | 5.09 | 2.34 | 0/7 | > 250 |
| CC(C)n1cc(-c2nc(Br)c(N)nc2-c2ccccc2)ccc1=O [Example 141, 5-(5-amino-6-bromo-3-phenyl-2-pyrazinyl)-1-isopropyl-2(1H)-pyridone] | 0.61 | 0.23 | 0/7 |  |
| CC(C)n1cc(-c2nc(Oc3ccccc3)c(N)nc2-c2ccccc2)ccc1=O [Example 151, 5-(5-amino-6-phenoxy-3-phenyl-2-pyrazinyl)-1-isopropyl-2(1H)-pyridone] | 1.57 | 0.32 | 0/7 |  |
| CC(C)n1cc(-c2nc(C(=O)NCC#N)c(N)nc2-c2ccccc2)ccc1=O [Example 46, 3-Amino-N-(cyanomethyl)-6-(1-isopropyl-6-oxo-1,6-dihydro-3-pyridyl)-5-phenyl-2-pyrazinecarboxamide] | 5.25 | 1.49 | 0/7 |  |
| Cn1cc(-c2nc(C#N)c(N)nc2-c2ccccc2)ccc1=O [Example 11, 3-amino-6-(1-methyl-6-oxo-1,6-dihydro-3-pyridyl)-5-phenyl-2-pyrazinecarbonitrile] | 22.5 | 2.35 | 0/7 |  |
| CC(C)n1cc(-c2nc(Br)c(N)nc2-c2ccccc2)cc(Br)c1=O [Example 53, 5-(5-amino-6-bromo-3-phenyl-2-pyrazinyl)-3-bromo-1-isopropyl-2(1H)-pyridone] | 0.93 | 0.91 | 0/7 |  |
| CC(C)n1cc(-c2nc(C#N)c(N)nc2-c2ccc(F)c(F)c2)ccc1=O [Example 39, 3-Amino-5-(3,4-difluorophenyl)-6-(1-isopropyl-6-oxo-1,6-dihydro-3-pyridyl)-2-pyrazinecarbonitrile] | 24 | 6.52 | 0/7 |  |
